Laboratory results published in PubChem BioAssay AID179 (DTP/NCI, 2004).
Values joined by “and” are separate entries in the source; they are usually repeats but may differ in a detail not shown here. Equal values may be shown once. Active and inactive are the calls of the source.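 The calls were made as follows: active = compounds giving half or more protection of infected cells from virus-caused growth loss, again on retest; inactive = the rest.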 Where a SMILES comes first, the peptide text is derived from it.

System: CEM cells HIV-1 protection, formazan growth assay
Assay: NCI AIDS Antiviral Assay
Details: for IC50: measured here: growth of uninfected CEM cells
Method: The ability of compounds to protect human CEM cells from HIV-1 infection is measured as a screen for new compounds capable of inhibiting the HIV virus. Five concentrations of drug were tested on uninfected and infected cells and cell growth was measured using a soluble formazan assay. […] Compounds that provided at least 50% protection were retested. Compounds that provided at least 50% protection on retest were listed as moderately active. Compounds that reproducibly provided 100% protection were listed as confirmed active. […] Note that the inability to provide protection could be due to toxicity.

Compound	EC50 [µM]	IC50	outcome
CC1=C(C(=O)Nc2ccc(Cl)c(Cl)c2)C(c2ccco2)C(C(=O)Nc2ccc(Cl)c(Cl)c2)=C(C)N1	> 33.9	13.8 µM	
COC(=O)Cc1nc2ccccc2o1	> 1290	33.9 µM	
O=C(N/N=C1\CCc2ccccc2C1)N/N=C1\CCc2ccccc2C1	> 200	51.3 µM	
CC(=O)[C@H]1CC[C@@H]2[C@]1(C)CC=C1[C@]23C=C[C@]2(C[C@@H](O)CC[C@]12C)C(C(=O)O)C3C(=O)O (some centres undefined)			inactive
Cc1cccc(NC(=O)Nc2ccc(F)cc2)n1	129	> 200 µM	
COC(CNC(=O)C(C)NC(=O)C(C)NC(=O)c1ccccc1)OC (centres undefined)			inactive
CC(C)(C)[Si](OC1CC(n2cnc3c(N)ncnc32)OC1CO)(c1ccccc1)c1ccccc1 (centres undefined)	> 100	> 100 µM	
CCCC[P+](c1ccccc1)(c1ccccc1)c1ccccc1	> 200	2.57 µM	
CC(=O)OC1C(C)(O)[C@@H]2CC[C@H]3C4(C)CCCC(C)(C)[C@H]4CC[C@]13C2 (some centres undefined)	> 50.1	> 50.1 µM	
COc1ccc(/C=C2\N=C(NN)N=C2Cl)cc1	> 200	> 200 µM	
N#C/C(N)=C(\C#N)N=CN	> 200	> 200 µM	
CC(N)C(=O)NCC(=O)NC(CO)C(=O)NC(CCC(N)=O)C(=O)NC(CCC(=O)O)C(=O)N1CCCC1C(=O)NC(CCCCN)C(=O)NC(CCC(=O)O)C(=O)NC(CCC(N)=O)C(=O)NC(CO)C(=O)NC(CO)C(=O)NC(Cc1ccc(O)cc1)C(=O)NC(CO)C(=O)NC(Cc1cnc[nH]1)C(=O)NC(CO)C(=O)O (centres undefined) (H-AGSQEPKEQSSYSHS-OH; configuration not given here)	> 100	> 100 µM	
O=C1NC(N/N=C\C(O)C(O)C(O)CO)=N/C1=C/c1ccc(Cl)cc1 (centres undefined)	> 200	30.2 µM	inactive
CCN(CC)C(=O)C/C(C)=N/NC(=O)c1ccncc1	> 93.3	> 93.3 µM	
Cc1ccc(/C(C#N)=C/c2ccc(N(C)C)cc2)cc1	> 200	1.29 µM	
COc1ccc(-c2c(C#N)cnc(C)c2C)c(O)c1OC	> 631	115 µM	
CCOC(=O)/C(=C/n1c(=S)[nH]c2ccc([N+](=O)[O-])cc21)C(=O)c1ccccc1	> 200	141 µM	
CN1c2ccccc2NP1(=S)Oc1ccccc1 (centres undefined)	> 93.3	> 93.3 µM	
CCCCCc1cc(O)c2c3c(c(=O)oc2c1)CP(=O)(c1ccccc1)CC3 (centres undefined)	> 25.1	19.1 µM	
C[C@H]1CCC2C(CN3CCCCC3)C(=O)OC2[C@]2(C)C(=O)CC(N3CCCCC3)C12O (some centres undefined)			inactive
Oc1[nH]c2ccccc2c1N=NC(=S)Nc1ccc(Cl)cc1	> 200	24.5 µM	

Compound	EC50 [µM]	IC50	outcome
C=C(C)C12CC3/C(=N\O)C(C1)C(C)C(/C3=N\O)[C@@]2(C)O (some centres undefined)	> 200	> 200 µM	
C=CC12CN3C4C3C1C1(CCC42)C(=O)N(COCC[Si](C)(C)C)c2ccccc21 (centres undefined)	> 63.1	25.7 µM	
O=[N+]([O-])c1ccc(-c2cc(O)c3nc4ccccc4n3c2)cc1	178	> 200 µM	
[N-]=[N+]=Nc1ccc(S(=O)(=O)Oc2cc(OS(=O)(=O)c3ccc(N=[N+]=[N-])cc3)cc(OS(=O)(=O)c3ccc(N=[N+]=[N-])cc3)c2)cc1	> 4.07	> 4.07 µM	
Cn1c(=S)[nH]c2c(Cl)cc(Cl)cc2c1=O	> 200	138 µM	
NC(CSSCC(N)=NCCCCCSC12CC3CC(CC(C3)C1)C2)=NCCCCCSC12CC3CC(CC(C3)C1)C2	> 200	6.17 µM	
N#Cc1nc(NC(=O)c2ccccc2)sc1N	> 200	15.1 µM	
CC(O)(c1ccccc1)c1nccc2ccccc12 (centres undefined)	> 200	77.6 µM	
O=C(Nc1cccc(C(F)(F)F)c1)c1cc(-c2ccccc2)nc(=S)[nH]1	> 661	> 661 µM	
CCCCCCCCCCCCNC(=O)c1ccccc1[Se][Se]c1ccccc1C(=O)NCCCCCCCCCCCC	> 3.55	> 3.55 µM	
COC(=O)CCCC1(CCCC(=O)OC)CCCCCCCCC(CCCC(=O)OC)(CCCC(=O)OC)C(=O)C1=O	> 200	35.5 µM	
Cc1cc(=O)n2nc(CSc3n[nH]c(=S)s3)sc2n1	> 200	> 200 µM	
Cc1c(C(=O)CC(=O)C(=O)Nc2c(C(C)C)cccc2C(C)C)[n+](=O)c2ccccc2n1[O-]	> 6.03	> 6.03 µM	
O=c1ccc2cc3ccoc3c(O)c2o1	> 447	135 µM	
CN(C)c1ccc(/C=C(\C#N)C(N)=C(C#N)C#N)cc1	132	> 200 µM	
OC(C1=C/C(=C\c2ccncc2)c2ccccc21)c1ccncc1 (centres undefined)	> 83.2	5.25 µM	
COC(=O)c1cc(CC2Cc3cc4c(cc3C2)CCC4)cc2c1CCC2	> 200	> 200 µM	
O=C1c2ccccc2OC(Cl)(c2ccccc2)C1Cl (centres undefined)	> 200	31.6 µM	
C1=Cc2ccccc2C(c2ccccc2)=NC1	> 229	145 µM	
CCCc1cc(=O)oc2c3c(c4c(c12)OC(C)(C)CC4)O[C@H](C)[C@@H](C)[C@@H]3O	0.316	8.13 µM	
Cc1oc(N)c(S(=O)(=O)c2cc3ccccc3n(O)c2=N)c1C	> 200	95.5 µM	

Compound	EC50 [µM]	IC50	outcome
CCC12OC(COc3ccccc3)CN1CCS2 (centres undefined)	> 257	132 µM	
COc1ccc(CC2NCCc3cc(OC)c(OC)cc32)cc1Br (centres undefined)	> 240	33.9 µM	
CC(=O)C(=[N+]=[N-])C(=O)OC(C)(C)C#N	> 200	> 200 µM	
Nc1ncnc2c1ncn2C1OC2CSCCC2(O)C1O (centres undefined)	> 200	> 200 µM	
CN(/N=C/c1cccc2cccnc12)c1ccc([N+](=O)[O-])cc1			inactive
O=S(=O)(SCCO)c1ccccc1	> 813	57.5 µM	
COc1ccc2[nH]cc(CCNC(C)=O)c2c1	> 200	> 200 µM	
N#Cc1c(-c2ccc(Cl)cc2)[nH]c(=O)n(C2OC(CO)C(O)C(O)C2O)c1=O (centres undefined)	> 200	> 200 µM	
N#Cc1c(-c2ccc(Cl)cc2)c(C#N)c(=O)n(NS(=O)(=O)c2ccccc2)c1O	> 200	> 200 µM	
O=S(=O)(F)c1cccc(Cl)c1C[P+](c1ccccc1)(c1ccccc1)c1ccccc1	> 200	25.7 µM	
CCOC(=O)c1cc2c(=O)cccnc2o1	> 52.5	> 52.5 µM	
CCc1n[nH]c(CC)c1CCCCCCOc1ccc(OC)cc1Cl	> 200	9.77 µM and 10 µM	
C=C[C@@]1(O)CC[C@@H](C(C)(C)C)C[C@H]1CC(=C)Br			inactive
OC(Cc1ccc(Br)cc1)CN1CCC(c2ccccc2)CC1 (centres undefined)	> 229	17.8 µM and 9.55 µM	
O=C(O)CCSC(=O)Nc1cccc(F)c1			inactive
COc1ccccc1Nc1nc(N)nc(N)c1N	> 200	36.3 µM	
COC(=O)/C(=C/c1c[nH]c2ccccc12)NC=O	> 200	> 200 µM	
CCC(CO)COC(=O)/C=C/C(=O)OCC(CC)CO (centres undefined)			inactive
COc1cc(-c2ccc(N=Nc3ccc4c(S(=O)(=O)O)cc(S(=O)(=O)O)c(N)c4c3O)c(OC)c2)ccc1N=Nc1ccc2c(S(=O)(=O)O)cc(S(=O)(=O)O)c(N)c2c1O	5.01	49 µM	active
Nc1ncnc2c(C3OC(CO)C(O)C3O)c[nH]c12 (centres undefined)	> 832	0.263 µM	
CCCCCCCCCCO/N=C\c1c2c(O)c3c(O)c(C)c4c(c3c1O)C(=O)C(C)(O/C=C\C(OC)C(C)C(OC(C)=O)C(C)C(O)C(C)C(O)C(C)/C=C\C=C(\C)C(=O)N2)O4 (centres undefined)	> 200	3.02 µM	

Compound	EC50 [µM]	IC50	outcome
N#C/C(=C1\SC(=O)CN1c1ccccc1)c1nc2ccccc2o1	> 200	> 200 µM	
O=C(/C=C/c1cccc2ccccc12)c1ccccc1[N+](=O)[O-]	> 200	3.24 µM	
O=C(O)CCN1c2ccccc2Sc2ccccc21	> 479	170 µM	
N#C/C(=C\N1CCNC1=S)C(=O)c1ccc2ccccc2c1	> 200	151 µM	
CN(C)CCCN1C(=O)C2CCC(C)(C1=O)C2(C)C (centres undefined)	> 832	12.9 µM	
Cc1ccc(N2C(=O)/C(=C/c3ccc(N(CCC#N)CCC#N)cc3C)N=C2c2cc([N+](=O)[O-])ccc2Cl)cc1			inactive
NNc1cnn(-c2ccccc2)c(=O)c1Cl	> 57.5	4.57 µM	
O=S1(=O)CC2C(C1)C1(c3ccccc3)OC2(c2ccccc2)c2ccccc21 (centres undefined)			inactive
CC(C)C1N(N2C(=O)CS(=O)(=O)C2C(C)C)C(=O)CS1(=O)=O (centres undefined)	> 200	> 200 µM	
O=C1CCCCC1C(O)(C(F)(F)F)C(F)(F)Cl (centres undefined)	> 200	85.1 µM	
O=C1CC=CN1CCn1c(=S)[nH]c2ccccc21	> 501	> 501 µM	
Cc1nn(C(=O)c2ccncc2)c2c1C(c1ccccc1O)SC(N)=N2 (centres undefined)	85.1	148 µM	
CC(=O)[CH-]C(C)=O.CC(=O)[CH-]C(C)=O.[CH2-]CCC.[CH2-]CCC.[Sn+4]	> 60.3	0.661 µM	
Cc1ccc(/C=C2\CN(C)CC3C(c4ccc(C)cc4)=C(C#N)C(=O)NC23)cc1 (centres undefined)	> 200	> 200 µM	
Nc1nc(Br)nc2ncn(C3CC(O)C(CO)O3)c12 (centres undefined)	> 200	7.41 µM	
O=C(Nc1ccc([N+](=O)[O-])cc1)N(c1ccccn1)c1ccccn1	> 200	151 µM	
c1ccc(N2CC3CSc4c(ccc5ccccc45)C3=N2)cc1 (centres undefined)	> 200	162 µM	
CN1CCN(C2Sc3ccccc3C(=O)N3CCCC23)CC1 (centres undefined)	> 126	> 126 µM	
O=[N+]([O-])c1ccc2cnn(CN3CCCCC3)c2c1	> 200	89.1 µM	
COc1cc(OC)cc(C2(C(=O)O)CCN(C)CC2)c1	> 891	97.7 µM	
